Test results: ChEMBL document CHEMBL1759979, “Impact of aryloxy-linked quinazolines: a novel series of selective VEGFR-2 receptor tyrosine kinase inhibitors” (Bioorg Med Chem Lett, 2011)

Key:
[1] = Antiproliferative activity against human EAhy926 cells after 72 hrs by MTS assay; assay type: functional, EA.hy 926; set-up: concentration or dose not given beside the values
MCF7 [2] = assay: Antiproliferative activity against human MCF7 cells after 72 hrs by MTS assay; assay type: functional; set-up: concentration or dose not given beside the values
[3] = target: T1, Vascular endothelial growth factor receptor 2 (Homo sapiens, UniProt P35968); assay: Inhibition of recombinant human VEGFR-2-mediated poly(Glu4Tyr) phosphorylation after 1 hr
T1 sequence (P35968 whole entry): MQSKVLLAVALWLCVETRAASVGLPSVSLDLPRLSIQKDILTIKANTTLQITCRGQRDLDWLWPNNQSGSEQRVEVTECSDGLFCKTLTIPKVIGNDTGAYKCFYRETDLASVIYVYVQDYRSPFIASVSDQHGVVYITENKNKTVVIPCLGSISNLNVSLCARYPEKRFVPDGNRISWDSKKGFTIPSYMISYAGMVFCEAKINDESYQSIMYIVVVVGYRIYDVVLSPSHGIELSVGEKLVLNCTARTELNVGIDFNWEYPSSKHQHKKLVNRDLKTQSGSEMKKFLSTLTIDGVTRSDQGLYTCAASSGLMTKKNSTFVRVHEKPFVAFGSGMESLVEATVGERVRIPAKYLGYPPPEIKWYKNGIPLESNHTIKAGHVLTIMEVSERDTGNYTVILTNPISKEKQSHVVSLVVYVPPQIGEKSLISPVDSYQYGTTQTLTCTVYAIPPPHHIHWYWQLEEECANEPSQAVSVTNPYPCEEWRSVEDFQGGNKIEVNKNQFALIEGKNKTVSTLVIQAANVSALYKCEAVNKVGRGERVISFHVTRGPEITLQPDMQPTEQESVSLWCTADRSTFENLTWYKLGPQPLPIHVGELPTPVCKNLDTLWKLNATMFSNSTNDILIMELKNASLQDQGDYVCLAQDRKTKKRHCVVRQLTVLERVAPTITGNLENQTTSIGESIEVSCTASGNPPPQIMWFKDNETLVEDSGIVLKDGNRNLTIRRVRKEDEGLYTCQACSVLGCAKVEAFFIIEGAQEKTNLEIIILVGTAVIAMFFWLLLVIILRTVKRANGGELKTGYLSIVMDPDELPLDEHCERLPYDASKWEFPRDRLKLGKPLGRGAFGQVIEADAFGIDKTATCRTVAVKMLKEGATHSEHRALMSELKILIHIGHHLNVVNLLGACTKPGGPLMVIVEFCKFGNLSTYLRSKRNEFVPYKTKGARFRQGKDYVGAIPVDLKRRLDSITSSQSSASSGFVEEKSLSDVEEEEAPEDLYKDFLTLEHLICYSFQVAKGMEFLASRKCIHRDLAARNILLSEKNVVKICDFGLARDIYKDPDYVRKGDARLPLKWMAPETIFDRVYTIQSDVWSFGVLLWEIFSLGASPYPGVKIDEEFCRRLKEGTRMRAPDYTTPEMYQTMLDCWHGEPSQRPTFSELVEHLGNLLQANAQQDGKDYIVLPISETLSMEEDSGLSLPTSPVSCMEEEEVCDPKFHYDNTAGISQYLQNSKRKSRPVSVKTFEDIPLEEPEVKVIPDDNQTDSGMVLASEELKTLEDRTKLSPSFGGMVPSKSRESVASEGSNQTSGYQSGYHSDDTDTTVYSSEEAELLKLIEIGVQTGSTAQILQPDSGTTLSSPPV

HT-29 [4] = assay: Antiproliferative activity against human HT-29 cells after 72 hrs by MTS assay; assay type: functional; set-up: concentration or dose not given beside the values
[5] = target: Epidermal growth factor receptor (Homo sapiens, UniProt P00533); assay: Inhibition of human EGFR-mediated poly(Glu4Tyr) phosphorylation after 1 hr
Epidermal growth factor receptor, sequence (P00533 whole entry): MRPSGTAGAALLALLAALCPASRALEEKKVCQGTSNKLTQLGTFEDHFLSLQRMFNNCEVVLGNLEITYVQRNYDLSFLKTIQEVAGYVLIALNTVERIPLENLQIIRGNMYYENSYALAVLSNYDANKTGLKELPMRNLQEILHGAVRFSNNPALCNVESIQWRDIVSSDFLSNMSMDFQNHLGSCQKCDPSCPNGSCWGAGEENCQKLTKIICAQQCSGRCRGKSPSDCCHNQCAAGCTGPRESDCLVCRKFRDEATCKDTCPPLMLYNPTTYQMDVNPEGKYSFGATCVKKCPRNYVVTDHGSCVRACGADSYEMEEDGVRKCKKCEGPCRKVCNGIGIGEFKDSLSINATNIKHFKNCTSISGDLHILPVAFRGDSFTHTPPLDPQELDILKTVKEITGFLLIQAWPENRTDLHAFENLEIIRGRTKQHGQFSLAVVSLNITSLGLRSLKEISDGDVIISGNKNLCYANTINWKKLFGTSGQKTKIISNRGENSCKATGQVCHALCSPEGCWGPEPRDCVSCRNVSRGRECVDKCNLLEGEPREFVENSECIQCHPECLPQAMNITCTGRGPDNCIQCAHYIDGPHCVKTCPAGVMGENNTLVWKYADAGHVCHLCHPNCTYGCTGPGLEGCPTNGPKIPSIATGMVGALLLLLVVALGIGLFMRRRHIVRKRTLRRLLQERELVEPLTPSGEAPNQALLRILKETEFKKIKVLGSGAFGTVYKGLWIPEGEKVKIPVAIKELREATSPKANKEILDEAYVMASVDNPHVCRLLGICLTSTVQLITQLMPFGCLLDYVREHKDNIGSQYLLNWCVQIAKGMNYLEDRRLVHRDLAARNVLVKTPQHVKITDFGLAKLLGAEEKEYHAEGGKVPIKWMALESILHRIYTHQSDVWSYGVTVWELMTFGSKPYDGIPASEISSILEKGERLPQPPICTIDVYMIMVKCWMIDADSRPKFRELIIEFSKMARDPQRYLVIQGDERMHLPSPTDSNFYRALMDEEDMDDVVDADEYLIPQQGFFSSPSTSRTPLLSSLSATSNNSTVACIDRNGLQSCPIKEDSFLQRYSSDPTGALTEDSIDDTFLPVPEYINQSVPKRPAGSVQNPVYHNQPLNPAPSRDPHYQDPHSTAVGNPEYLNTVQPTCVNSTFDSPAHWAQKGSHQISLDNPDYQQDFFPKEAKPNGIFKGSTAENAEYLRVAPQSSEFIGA

PC-3 [6] = assay: Antiproliferative activity against human PC3 cells after 72 hrs by MTS assay; assay type: functional; set-up: concentration or dose not given beside the values
MCF7 [7] = assay: Antiproliferative activity against human MCF7 cells at 10 uM after 72 hrs by MTS assay; conditions: MCF7, 72 h
PC-3 [8] = assay: Antiproliferative activity against human PC3 cells at 10 uM after 72 hrs by MTS assay; assay type: functional, cell-based; conditions: PC-3, 72 h
HT-29 [9] = assay: Antiproliferative activity against human HT-29 cells at 10 uM after 72 hrs by MTS assay; assay type: functional, cell-based; conditions: HT-29, 72 h
[10] = Antiproliferative activity against human EAhy926 cells at 10 uM after 72 hrs by MTS assay; assay type: functional, cell-based; conditions: EA.hy 926, 72 h
[11] = target: T1, Vascular endothelial growth factor receptor 2; assay: Inhibition of KDR

Structure (SMILES)	Activity [1]	Activity (MCF7 [2])	IC50 [3]	Activity (HT-29 [4])	IC50 [5]	Activity (PC-3 [6])	also measured
COc1cc2ncnc(N(C)c3ccc(Br)cc3F)c2cc1OC	0%	0%	> 10 µM	14%	> 10 µM	15%	
COc1cc2ncnc(Oc3cccc(NC(=O)Nc4ccccc4)c3)c2cc1OC					> 10 µM		
COc1cc2ncnc(Oc3ccc(NC(=O)Nc4ccc(F)cc4F)cc3)c2cc1OC					> 10 µM		
COc1cc2ncnc(N(C)c3cccc(NC(=O)Nc4ccccc4)c3)c2cc1OC	0%	0%		0%		0%	
COC(=O)Nc1ccc(Oc2ncnc3cc(OC)c(OC)cc23)cc1					> 10 µM		
COc1cc2ncnc(Oc3ccc(NC(C)=O)cc3)c2cc1OC	3%	5%		0%		0%	
COc1cc2ncnc(Nc3ccc(NC(C)=O)cc3)c2cc1OC	0%	12%	> 10 µM	0%	> 10 µM	2%	
COc1ccc(NC(=O)Nc2cccc(N(C)c3ncnc4cc(OC)c(OC)cc34)c2)cc1	0%	0%		0%		0%	
COc1cc2ncnc(Nc3ccc(NC(=O)Nc4ccc(F)c(Cl)c4)cc3)c2cc1OC			4.3 µM		> 10 µM		IC50 (MCF7 [7]): 7.7 µM; IC50 (PC-3 [8]): 9.4 µM; IC50 (HT-29 [9]): 6.2 µM; IC50 [10]: 5.3 µM
COc1cc2ncnc(Oc3ccc(NC(=O)Nc4ccc(C)cc4)cc3)c2cc1OC	42%	23%		17%	> 10 µM	23%	
CCOC(=O)Nc1ccc(Nc2ncnc3cc(OC)c(OC)cc23)cc1	0%	6%	5.6 µM	16%	> 10 µM	12%	
COc1cc2ncnc(Oc3ccc(NC(=O)Nc4ccc(C(F)(F)F)cc4)cc3)c2cc1OC					> 10 µM		
COc1ccc(NC(=O)Nc2ccc(Oc3ncnc4cc(OC)c(OC)cc34)cc2)cc1	24%	0%	0.07 µM	9%	> 10 µM	12%	IC50 [11]: 0.07 µM
COC(=O)Nc1ccc(Nc2ncnc3cc(OC)c(OC)cc23)cc1	0%	27%	5.8 µM	10%		2%	
COc1cc2ncnc(N(C)c3ccc(NC(=O)Nc4ccc(F)c(Cl)c4)cc3)c2cc1OC	29%	35%	> 10 µM		> 10 µM		
CCCCNC(=O)Nc1ccc(Oc2ncnc3cc(OC)c(OC)cc23)cc1					> 10 µM		
COc1cc2/c(=N/c3ccc(Br)cc3F)nc[nH]c2cc1OCC1CCN(C)CC1 [VANDETANIB]		26%				33%	IC50 (HT-29 [9]): 4.2 µM; IC50 [10]: 5.1 µM

Structure (SMILES)	Activity [1]	Activity (MCF7 [2])	IC50 [3]	Activity (HT-29 [4])	IC50 [5]	Activity (PC-3 [6])	also measured
COc1ccc(NC(=O)Nc2cccc(Oc3ncnc4cc(OC)c(OC)cc34)c2)cc1					> 10 µM		
COc1cc2ncnc(Oc3cccc(Br)c3)c2cc1OC	0%	0%		6%	7.6 µM	27%	
COc1cc2ncnc(Oc3ccc(NC(=O)Nc4ccc(F)c(Cl)c4)cc3)c2cc1OC					> 10 µM		
COc1cc2ncnc(Oc3ccc(NC(=O)Nc4ccccc4)cc3)c2cc1OC	15%	12%	0.06 µM	12%	> 10 µM	23%	
COc1cc2ncnc(N(C)c3ccc(F)c(Cl)c3)c2cc1OC	46%	0%	> 10 µM		> 10 µM	22%	IC50 (HT-29 [9]): 5.2 µM
COc1cc2ncnc(Nc3cccc(Br)c3)c2cc1OC						40%	IC50 [10]: 7.1 µM
COc1cc2ncnc(Oc3ccc(NC(=O)NC4CCCCC4)cc3)c2cc1OC					> 10 µM		
COc1ccc(NC(=O)Nc2ccc(Nc3ncnc4cc(OC)c(OC)cc34)cc2)cc1					> 10 µM		
COc1cc2ncnc(Nc3ccc(Br)cc3F)c2cc1OC	0%	31%	1.65 µM	0%	5.7 µM	1%	
COc1cc2ncnc(Oc3ccc(NC(=O)Nc4ccc5ccccc5c4)cc3)c2cc1OC					> 10 µM		
COc1cc2ncnc(Oc3ccc(F)c(Cl)c3)c2cc1OC		0%	9.5 µM		> 10 µM	5%	IC50 (HT-29 [9]): 4.07 µM
COc1cc2ncnc(Oc3ccc(Br)c(F)c3)c2cc1OC					5.9 µM		
COc1cc2ncnc(Nc3ccc(NC(=O)Nc4ccccc4)cc3)c2cc1OC					> 10 µM		
COc1cc2ncnc(Oc3ccc(NC(=O)Nc4ccc(Br)cc4)cc3)c2cc1OC					> 10 µM		
COc1cc2ncnc(Nc3ccc(F)c(Cl)c3)c2cc1OC			5.3 µM				IC50 (MCF7 [7]): 4.9 µM; IC50 (PC-3 [8]): 6.5 µM; IC50 (HT-29 [9]): 5.7 µM; IC50 [10]: 4.5 µM
CCOC(=O)Nc1ccc(Oc2ncnc3cc(OC)c(OC)cc23)cc1					> 10 µM		
COc1cc2ncnc(Oc3ccc(NC(=O)Nc4cccc5ccccc45)cc3)c2cc1OC	9%	8%		17%	> 10 µM	8%	
